Results as given in patent US20100003209A1, “Odor Blocking Water-Absorbent Compositions” (BASF SE, priority 2006, published 2010).
Read-outs that look alike come from different tables or passages of the source.

Experiments:
urease (from jack beans) = urease (from jack beans) (Canavalia ensiformis, UniProt P07374); conditions: 23° C.
Experimental: The measurements should be carried out, unless otherwise stated, at an ambient temperature of 23±2° C. and a relative humidity of 50±10%. The water-absorbing polymers are thoroughly commixed prior to the measurement.
To determine the odor-preventing effect, 2 g of each of the compositions produced above were placed in a 100 ml Erlenmeyer flask and admixed with a freshly prepared solution of 30 mg of urease (from jack beans; lyophilized 5 U/mg for urea assay in serum; Merck KGaA, Germany) and 50 ml of 0.9% sodium chloride solution, the sodium chloride solution containing 8.56 g/l of urea, and sealed with a stopper having an internal diffusion tubelet (Dräger® Röhrchen; ammonia 20/a-D, 20 to 1500 ppm*h). The measurement was discontinued after 6 hours. The test was carried out at 23° C.

[1] = Centrifuge Retention Capacity (CRC), EDANA test method No. 441.2-02; format: physicochemical
[2] = 0.0500% by weight in composition with polymer from Example 1 (55 mol % neutralized)
[3] = 0.2000% by weight in composition with polymer from Example 1 (55 mol % neutralized)

urease (from jack beans), sequence (P07374 whole entry, looked up): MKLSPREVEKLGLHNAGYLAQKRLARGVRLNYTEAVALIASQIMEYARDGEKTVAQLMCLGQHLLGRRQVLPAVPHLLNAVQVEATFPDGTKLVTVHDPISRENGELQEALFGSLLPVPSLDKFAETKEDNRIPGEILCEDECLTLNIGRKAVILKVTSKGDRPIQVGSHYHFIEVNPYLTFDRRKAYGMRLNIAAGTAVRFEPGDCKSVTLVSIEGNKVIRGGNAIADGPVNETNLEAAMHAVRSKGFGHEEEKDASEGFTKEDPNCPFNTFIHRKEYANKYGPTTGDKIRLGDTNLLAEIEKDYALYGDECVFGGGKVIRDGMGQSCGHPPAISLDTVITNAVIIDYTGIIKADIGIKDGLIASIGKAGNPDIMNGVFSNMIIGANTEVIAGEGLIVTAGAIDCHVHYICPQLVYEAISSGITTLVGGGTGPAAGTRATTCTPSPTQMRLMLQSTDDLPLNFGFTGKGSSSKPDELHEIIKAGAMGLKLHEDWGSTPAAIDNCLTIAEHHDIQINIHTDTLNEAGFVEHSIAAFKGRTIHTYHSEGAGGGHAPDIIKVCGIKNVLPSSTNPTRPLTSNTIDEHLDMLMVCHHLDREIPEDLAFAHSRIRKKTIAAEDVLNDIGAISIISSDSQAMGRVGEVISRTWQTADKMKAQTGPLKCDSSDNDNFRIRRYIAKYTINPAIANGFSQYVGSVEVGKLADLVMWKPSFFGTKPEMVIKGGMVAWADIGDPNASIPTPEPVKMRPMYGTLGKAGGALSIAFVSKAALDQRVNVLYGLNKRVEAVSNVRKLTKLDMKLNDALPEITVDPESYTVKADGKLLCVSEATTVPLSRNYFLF

Oc1ccc(O)cc1 [hydroquinone]
NH3 after 6 hours (urease (from jack beans); 0.0025% by weight in composition, degree of neutralization 55 mol %): 91 ppm | NH3 after 6 hours (urease (from jack beans); 0.0025% by weight in composition, degree of neutralization 60 mol %): 182 ppm | NH3 after 6 hours (urease (from jack beans); 0.0025% by weight in composition, degree of neutralization 72 mol %): 800 ppm | NH3 after 6 hours (urease (from jack beans); 0.0050% by weight in composition, degree of neutralization 55 mol %): 58 ppm | NH3 after 6 hours (urease (from jack beans); 0.0050% by weight in composition, degree of neutralization 60 mol %): 78 ppm | NH3 after 6 hours (urease (from jack beans); 0.0050% by weight in composition, degree of neutralization 72 mol %): 381 ppm | NH3 after 6 hours (urease (from jack beans); 0.0100% by weight in composition, degree of neutralization 55 mol %): 29 ppm | NH3 after 6 hours (urease (from jack beans); 0.0100% by weight in composition, degree of neutralization 60 mol %): 45 ppm | NH3 after 6 hours (urease (from jack beans); 0.0100% by weight in composition, degree of neutralization 72 mol %): 214 ppm | NH3 after 6 hours (urease (from jack beans); 0.0200% by weight in composition, degree of neutralization 55 mol %): 0 ppm | NH3 after 6 hours (urease (from jack beans); 0.0200% by weight in composition, degree of neutralization 60 mol %): 10 ppm | NH3 after 6 hours (urease (from jack beans); 0.0200% by weight in composition, degree of neutralization 72 mol %): 63 ppm | NH3 after 6 hours (urease (from jack beans); 0.0500% by weight in composition, degree of neutralization 55 mol %): 0 ppm | NH3 after 6 hours (urease (from jack beans); 0.0500% by weight in composition, degree of neutralization 60 mol %): 0 ppm | NH3 after 6 hours (urease (from jack beans); 0.0500% by weight in composition, degree of neutralization 72 mol %): 15 ppm | NH3 after 6 hours (urease (from jack beans); 0.2000% by weight in composition, degree of neutralization 55 mol %): 0 ppm | NH3 after 6 hours (urease (from jack beans); 0.2000% by weight in composition, degree of neutralization 60 mol %): 0 ppm | NH3 after 6 hours (urease (from jack beans); 0.2000% by weight in composition, degree of neutralization 72 mol %): 0 ppm | NH3 after 6 hours (urease (from jack beans); 1.0000% by weight in composition, degree of neutralization 55 mol %): 0 ppm | NH3 after 6 hours (urease (from jack beans); 1.0000% by weight in composition, degree of neutralization 60 mol %): 0 ppm | NH3 after 6 hours (urease (from jack beans); 1.0000% by weight in composition, degree of neutralization 72 mol %): 0 ppm | CRC ([1]; 0.0050% by weight in composition with polymer from Example 1 (55 mol % neutralized)): 28.5 g/g | CRC [1, 2]: 28.7 g/g | CRC [1, 3]: 25.3 g/g | CRC ([1]; 1.0000% by weight in composition with polymer from Example 1 (55 mol % neutralized)): 23.4 g/g

[F-].[Na+] [sodium fluoride]
CRC [1, 2]: 29.1 g/g | CRC ([1]; 0.0900% by weight in composition with polymer from Example 1 (55 mol % neutralized)): 28.5 g/g | CRC [1, 3]: 24.1 g/g
